Test results published in patent US9434743B2, “Indazole derivatives” (TAKEDA PHARMACEUTICAL COMPANY LIMITED, priority 2012, dated 2016).

Experiments:
human MetAP2 enzyme [1] = target: T1, human MetAP2 enzyme (Homo sapiens, UniProt P50579); experiment: MetAP2 enzyme assay, enzyme complexed with manganese ions; conditions: MetAP2 Mn pIC50, MetAP2 enzyme complexed with manganese ions; Met-AMC substrate at Km
human MetAP2 enzyme [2] = target: T1, human MetAP2 enzyme; experiment: MetAP2 enzyme assay, enzyme complexed with cobalt ions; conditions: MetAP2 Co pIC50, MetAP2 enzyme complexed with cobalt ions; Met-AMC substrate at Km

T1 sequence (P50579 whole entry): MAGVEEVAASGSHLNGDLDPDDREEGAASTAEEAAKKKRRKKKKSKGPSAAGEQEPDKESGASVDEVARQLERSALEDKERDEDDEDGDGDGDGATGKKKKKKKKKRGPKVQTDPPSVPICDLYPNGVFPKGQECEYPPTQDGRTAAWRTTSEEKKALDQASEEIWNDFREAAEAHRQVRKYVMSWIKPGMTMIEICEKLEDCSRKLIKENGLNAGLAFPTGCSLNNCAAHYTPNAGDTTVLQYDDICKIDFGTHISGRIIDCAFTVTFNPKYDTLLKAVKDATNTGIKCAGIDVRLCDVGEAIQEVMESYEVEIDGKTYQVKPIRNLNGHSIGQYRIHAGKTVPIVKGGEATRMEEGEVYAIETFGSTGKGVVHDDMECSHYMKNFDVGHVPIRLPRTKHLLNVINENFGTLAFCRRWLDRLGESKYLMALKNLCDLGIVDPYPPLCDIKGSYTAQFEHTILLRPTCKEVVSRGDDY

Structure (SMILES)	IC50 (human MetAP2 enzyme [1]) [nM]	IC50 (human MetAP2 enzyme [2]) [nM]
COCCOc1ccc(-c2cc(C(F)(F)F)cc3[nH]ncc23)c(C)n1 [Example 362, 4-(6-(2-methoxyethoxy)-2-methylpyridin-3-yl)-6-(trifluoromethyl)-1H-indazole]	15.8	39.8
FC(F)(F)c1cc(-c2cnc3c(c2)OCCN3)c2cn[nH]c2c1 [Example 4, 7-(6-(trifluoromethyl)-1H-indazol-4-yl)-3,4-dihydro-2H-pyrido[3,2-b][1,4]oxazine]	6.31	25.1
Cn1cc(-c2cc(C(F)(F)F)cc3[nH]ncc23)c(=O)n(C)c1=O [Example 82, 1,3-dimethyl-5-(6-(trifluoromethyl)-1H-indazol-4-yl)pyrimidine-2,4(1H,3H)-dione]	10	501
Cc1nn(CC2(C)COC2)c(C)c1-c1cc(C(F)(F)F)cc2[nH]ncc12 [Example 380, 4-(3,5-dimethyl-1-((3-methyloxetan-3-yl)methyl)-1H-pyrazol-4-yl)-6-(trifluoromethyl)-1H-indazole]	25.1	398
Nc1ncc(-c2cc(C(F)(F)F)cc3[nH]ncc23)c2cccnc12 [Example 142, 5-(6-(trifluoromethyl)-1H-indazol-4-yl)-1,7-naphthyridin-8-amine]	7.94	25.1
FC(F)(F)c1cc(-c2ccncc2)c2cn[nH]c2c1 [Example 14, 4-(pyridin-4-yl)-6-(trifluoromethyl)-1H-indazole]	10	100
Cc1c(C(=O)NCCO)cc(-c2cc(C(F)(F)F)cc3[nH]ncc23)c(=O)n1C [Example 404, N-(2-hydroxyethyl)-1,2-dimethyl-6-oxo-5-(6-(trifluoromethyl)-1H-indazol-4-yl)-1,6-dihydropyridine-3-carboxamide]	12.6	251
Cc1cc(Cn2nc(CO)c(-c3cc(C(F)(F)F)cc4[nH]ncc34)c2C)on1 (single isomer, unassigned) [Example 411, (5-methyl-1-((3-methylisoxazol-5-yl)methyl)-4-(6-(trifluoromethyl)-1H-indazol-4-yl)-1H-pyrazol-3-yl)methanol]	7.94	6.31
Cc1ccc(C(=O)N2CCC(O)C2)cc1-c1cc(C(F)(F)F)cc2[nH]ncc12 (stereo not drawn) [Example 370, (3-hydroxypyrrolidin-1-yl)(4-methyl-3-(6-(trifluoromethyl)-1H-indazol-4-yl)phenyl)methanone]	31.6	126
CN1CCN(C(=O)c2cc(-c3cc(C(F)(F)F)cc4[nH]ncc34)cnc2F)CC1 [Example 289, (2-fluoro-5-(6-(trifluoromethyl)-1H-indazol-4-yl)pyridin-3-yl)(4-methylpiperazin-1-yl)methanone]	6.31	100
O=c1[nH]c2ccc(-c3cc(C(F)(F)F)cc4[nH]ncc34)cc2[nH]1 [Example 237, 5-(6-(trifluoromethyl)-1H-indazol-4-yl)-1H-benzo[d]imidazol-2(3H)-one]	2.51	12.6
O=S(=O)(c1ccc(-c2cc(C(F)(F)F)cc3[nH]ncc23)cc1)n1cccn1 [Example 223, 4-(4-(1H-pyrazol-1-ylsulfonyl)phenyl)-6-(trifluoromethyl)-1H-indazole]	7.94	126
Cc1c(-c2cc(C(F)(F)F)cc3[nH]ncc23)ccc(=O)n1Cc1ccccn1 [Example 407, 6-methyl-1-(pyridin-2-ylmethyl)-5-(6-(trifluoromethyl)-1H-indazol-4-yl)pyridin-2(1H)-one]	12.6	79.4
Cn1cnc(N)c(-c2cc(C(F)(F)F)cc3[nH]ncc23)c1=O [Example 245, 6-amino-3-methyl-5-(6-(trifluoromethyl)-1H-indazol-4-yl)pyrimidin-4(3H)-one]	31.6	1580
Cc1ncc(-c2cc(C(F)(F)F)cc3[nH]ncc23)n1C [Example 146, 4-(1,2-dimethyl-1H-imidazol-5-yl)-6-(trifluoromethyl)-1H-indazole]	100	794
NC(=O)c1ccc(-c2cc(C(F)(F)F)cc3[nH]ncc23)cc1 [Example 7, 4-(6-(trifluoromethyl)-1H-indazol-4-yl)benzamide]	5.01	25.1
Cc1nn(CCN(C)C)c(C)c1-c1cc(C(F)(F)F)cc2[nH]ncc12 [Example 219, 2-(3,5-dimethyl-4-(6-(trifluoromethyl)-1H-indazol-4-yl)-1H-pyrazol-1-yl)-N,N-dimethylethanamine]	12.6	50.1
OCc1ccccc1-c1cc(C(F)(F)F)cc2[nH]ncc12 [Example 12, (2-(6-(trifluoromethyl)-1H-indazol-4-yl)phenyl)methanol]	3.16	39.8
Cn1cc(-c2cc(C(F)(F)F)cc3[nH]ncc23)c(=O)n(CCN2CCOCC2)c1=O [Example 313, 1-methyl-3-(2-morpholinoethyl)-5-(6-(trifluoromethyl)-1H-indazol-4-yl)pyrimidine-2,4(1H,3H)-dione]	25.1	1580
FC(F)(F)c1cc(-c2cccc3[nH]ccc23)c2cn[nH]c2c1 [Example 81, 4-(1H-indol-4-yl)-6-(trifluoromethyl)-1H-indazole]	15.8	39.8

Structure (SMILES)	IC50 (human MetAP2 enzyme [1]) [nM]	IC50 (human MetAP2 enzyme [2]) [nM]
FC(F)(F)c1cc(-c2cnn3ccccc23)c2cn[nH]c2c1 [Example 41, 4-(pyrazolo[1,5-a]pyridin-3-yl)-6-(trifluoromethyl)-1H-indazole]	6.31	25.1
Cc1noc(C)c1-c1cc(C(F)(F)F)cc2[nH]ncc12 [Example 80, 3,5-dimethyl-4-(6-(trifluoromethyl)-1H-indazol-4-yl)isoxazole]	7.94	79.4
CNC(=O)c1ccc(-c2cc(C(F)(F)F)cc3[nH]ncc23)cn1 [Example 97, N-methyl-5-(6-(trifluoromethyl)-1H-indazol-4-yl)picolinamide]	2.51	50.1
COc1ccc(C)nc1-c1cc(C(F)(F)F)cc2[nH]ncc12 [Example 200, 4-(3-methoxy-6-methylpyridin-2-yl)-6-(trifluoromethyl)-1H-indazole]	50.1	316
Cc1ncccc1-c1cc(C(F)(F)F)cc2[nH]ncc12 [Example 50, 4-(2-methylpyridin-3-yl)-6-(trifluoromethyl)-1H-indazole]	5.01	31.6
FC(F)(F)c1cc(-c2cnc3[nH]ncc3c2)c2cn[nH]c2c1 [Example 243, 5-(6-(trifluoromethyl)-1H-indazol-4-yl)-1H-pyrazolo[3,4-b]pyridine]	5.01	39.8
Cn1ccnc1-c1cc(C(F)(F)F)cc2[nH]ncc12 [Example 147, 4-(1-methyl-1H-imidazol-2-yl)-6-(trifluoromethyl)-1H-indazole]	126	5010
Cc1nnc(-c2cccc(-c3cc(C(F)(F)F)cc4[nH]ncc34)c2)o1 [Example 37, 2-methyl-5-(3-(6-(trifluoromethyl)-1H-indazol-4-yl)phenyl)-1,3,4-oxadiazole]	7.94	39.8
CCn1ncc(-c2cc(C(F)(F)F)cc3[nH]ncc23)c1C [Example 175, 4-(1-ethyl-5-methyl-1H-pyrazol-4-yl)-6-(trifluoromethyl)-1H-indazole]	10	39.8
NS(=O)(=O)c1cncc(-c2cc(C(F)(F)F)cc3[nH]ncc23)c1 [Example 346, 5-(6-(trifluoromethyl)-1H-indazol-4-yl)pyridine-3-sulfonamide]	5.01	100
Cc1nn(CC(=O)NCCO)cc1-c1cc(C(F)(F)F)cc2[nH]ncc12 [Example 279, N-(2-hydroxyethyl)-2-(3-methyl-4-(6-(trifluoromethyl)-1H-indazol-4-yl)-1H-pyrazol-1-yl)acetamide]	5.01	50.1
COC(=O)c1c[nH]c(=O)c(-c2cc(C(F)(F)F)cc3[nH]ncc23)c1 [Example 265, methyl 6-oxo-5-(6-(trifluoromethyl)-1H-indazol-4-yl)-1,6-dihydropyridine-3-carboxylate]	10	100
COc1ncccc1-c1cc(C(F)(F)F)cc2[nH]ncc12 [Example 53, 4-(2-methoxypyridin-3-yl)-6-(trifluoromethyl)-1H-indazole]	5.01	39.8
Cc1nc(CCS(C)(=O)=O)ccc1-c1cc(C(F)(F)F)cc2[nH]ncc12 [Example 409, 4-(2-methyl-6-(2-(methylsulfonyl)ethyl)pyridin-3-yl)-6-(trifluoromethyl)-1H-indazole]	3.98	15.8
O=C(O)Cn1cc(-c2cc(C(F)(F)F)cc3[nH]ncc23)cn1 [Example 261, 2-(4-(6-(trifluoromethyl)-1H-indazol-4-yl)-1H-pyrazol-1-yl)acetic acid]	39.8	1000
OCCn1cc(-c2cc(C(F)(F)F)cc3[nH]ncc23)cn1 [Example 349, 2-(4-(6-(trifluoromethyl)-1H-indazol-4-yl)-1H-pyrazol-1-yl)ethanol]	6.31	100
FC(F)(F)c1cc(-c2cnn(Cc3cccnc3)c2)c2cn[nH]c2c1 [Example 96, 4-(1-(pyridin-3-ylmethyl)-1H-pyrazol-4-yl)-6-(trifluoromethyl)-1H-indazole]	5.01	39.8
FC(F)(F)c1cc(-c2cnn(CCN3CCOCC3)c2)c2cn[nH]c2c1 [Example 74, 4-(2-(4-(6-(trifluoromethyl)-1H-indazol-4-yl)-1H-pyrazol-1-yl)ethyl)morpholine]	3.98	50.1
CN1CCN(C(=O)c2cnc(N)c(-c3cc(C(F)(F)F)cc4[nH]ncc34)c2)CC1 [Example 221, (6-amino-5-(6-(trifluoromethyl)-1H-indazol-4-yl)pyridin-3-yl)(4-methylpiperazin-1-yl)methanone]	10	63.1
